These results are taken from US20240189265A1, “COMPOSITIONS AND TECHNIQUES FOR VAGINAL INSERTION” (Daré Bioscience, Inc., priority 2021, published 2024).

By solubility is commonly meant the concentration that dissolves in the medium under given conditions.

A short description of data set [1]: Solubility of drug substance in simulated vaginal fluid. Particulars: fassgf or other biorelevant. The data set is classed as physicochemical.
Data set [2] is described as follows: Compatibility of Diclofenac Sodium in Gel Formulation 1. It is filed as physicochemical. Conditions: 2%, 3% gels, viscosity, pH, appearance. The text has this:
Variation in pH was reported between prototypes but was expected due to the chemical nature of the API.

`O=C(O)Cc1ccccc1Nc1c(Cl)cccc1Cl` [Diclofenac Sodium]: the solubility in data set [1] is ~16 µg/mL. For the same compound, the “compatibility with the Gel Formulation 1 composition” value in data set [2] is “Compatible”.
